Reference: US20240245059A1 (priority 2021, published 2024)

Key:
Fusarium graminearum = type: in vivo; conditions: 2 L/ha of 10% w/w solution; one application 2 days after inoculation; incidence of affected leaves vs untreated
Ca. Phytoplasma vitis = experiment: Open field testing on phytoplasma, ddPCR quantification of DNA and RNA in Pervinca rosea; type: in vivo; conditions: 2 L/ha, endotherapy treatment, 48 hours after exposure, high values = reduced/no antibacterial activity; for % DNA: untreated 91; for % RNA: untreated 94
Experimental: Open Filed Testing on Phytoplasma—Antibacterial Activity on Ca. Phytoplasma vitis by Mixtures of Fatty Acids and Peptides
The activity on phytoplasma of three peptides (SEQ.ID.NO.: 1, 2 and 9), of crotonic and pelargonic acid and of the mixtures of these fatty acids with the aforementioned peptides were evaluated on Pervinca rosea suitably contaminated by Ca. Phytoplasma vitis.
The peptides of SEQ.ID.NO.: 1, 2 and 9 were dissolved in water at a concentration of 10% w/w. Aqueous solutions of crotonic and pelargonic acids were prepared at a concentration of 10% w/w. Aqueous solutions of peptides and solutions of fatty acids were mixed together, in order to obtain six different mixtures at a concentration of 10% w/w of peptide and acid.
The evaluation of the efficacy of the products used was evaluated with ddPCR (Droplet Digital PCR) technique for the quantification of the genetic material (DNA and RNA) after 48 hours from exposure to endotherapy treatment. High % DNA and RNA values are related to reduced/no antibacterial activity.

| Molecule | Efficacy (%) 1° check (Fusarium graminearum) [%] | Efficacy (%) 2° check (Fusarium graminearum) [%] | Efficacy (%) 3° check (Fusarium graminearum) [%] | % DNA (Ca. Phytoplasma vitis) [%] | % RNA (Ca. Phytoplasma vitis) [%] |
| --- | --- | --- | --- | --- | --- |
| Rs_AFP2: plant defensin antimicrobial peptide, SEQ.ID.NO: 2, per se known (QKLCQRPSGTWSGVCGNNNACKNQCIRLEKARHGSCNYVFPAHKCICYFPC; None) | 38 | 34 | 25.4 | 81 | 80 |
| Ps_Def1: plant defensin antimicrobial peptide, SEQ.ID.NO: 9 (RMCKTPSGKFKGYCVNNTNCKNVCRTEGFPTGSCDFHVAGRKCYCYKPCP; None) | 30 | 27 | 32 | 82 | 80 |
| Hs_AFP1: plant defensin antimicrobial peptide, SEQ.ID.NO: 1, per se known (DGVKLCDVPSGTWSGHCGSSSKCSQQCKDREHFAYGGACHYQFPSVKCFCKRQC; None) | 35 | 27.4 | 26.5 | 75 | 78 |
| C/C=C/C(=O)O [Crotonic acid] | 8 | 7 | 10 | 76 | 84 |
| CCCCCCCCC(=O)O [Pelargonic acid] | 10 | 8 | 9 | 84 | 86 |
